How the values were obtained:
Salmonella enteritidis [1] = assay: Antibacterial activity against Salmonella enteritidis at 20 mg/ml by paper disc method; type: functional, Salmonella enterica subsp. enterica serovar Enteritidis; conditions: Salmonella enterica; read-out: IZ
Salmonella enteritidis [2] = assay: Antibacterial activity against Salmonella enteritidis at 30 mg/ml by paper disc method; type: functional, Salmonella enterica subsp. enterica serovar Enteritidis; conditions: Salmonella enterica; read-out: IZ
Salmonella enteritidis [3] = assay: Antibacterial activity against Salmonella enteritidis at 40 mg/ml by paper disc method; type: functional, Salmonella enterica subsp. enterica serovar Enteritidis; conditions: Salmonella enterica; read-out: IZ
Pasteurella multocida [4] = assay: Antibacterial activity against Pasteurella multocida at 20 mg/ml by paper disc method; type: functional; conditions: read-out: IZ
Pasteurella multocida [5] = assay: Antibacterial activity against Pasteurella multocida at 30 mg/ml by paper disc method; type: functional; conditions: read-out: IZ
Pasteurella multocida [6] = assay: Antibacterial activity against Pasteurella multocida at40 mg/ml by paper disc method; type: functional
Mus musculus [7] = assay: Toxicity in mouse at 1600 mg/kg, po after 72 hrs; type: organism-based; design: dose 1600 mg/kg, route oral; conditions: in vivo
Mus musculus [8] = assay: Toxicity in mouse at 1000 mg/kg, ip after 72 hrs; type: organism-based; design: dose 1000 mg/kg, route intraperitoneal; conditions: in vivo

Row | Compound | zone of inhibition at 20000 µg/mL (Salmonella enteritidis [1]) [mm] | zone of inhibition at 30000 µg/mL (Salmonella enteritidis [2]) [mm] | zone of inhibition at 40000 µg/mL (Salmonella enteritidis [3]) [mm] | zone of inhibition at 20000 µg/mL (Pasteurella multocida [4]) [mm] | zone of inhibition at 30000 µg/mL (Pasteurella multocida [5]) [mm] | inhibition zone (IZ) (Pasteurella multocida [6]) [mm] | Activity (Mus musculus [7]) | Activity (Mus musculus [8])
1 | CN(C)C1C(O)=C(C(=O)NCNc2ccc(S(=O)(=O)Nc3ncccn3)cc2)C(=O)C2(O)C(O)=C3C(=O)c4c(O)cccc4C(C)(O)C3CC12 (configuration not stated) | 20 | 20.9 | 21.2 | 20.4 | 20.8 | 21.86 | Non-toxic | Toxic
2 | CN(C)C1C(O)=C(C(=O)NCNc2ccc(S(N)(=O)=O)cc2)C(=O)C2(O)C(O)=C3C(=O)c4c(O)cccc4C(C)(O)C3CC12 (configuration not stated) | 14.7 | 15 | 16 | 28.4 | 28.6 | 29.08 | Non-toxic | Toxic
3 | COc1ncnc(NS(=O)(=O)c2ccc(NCNC(=O)C3=C(O)C(N(C)C)C4CC5C(=C(O)C4(O)C3=O)C(=O)c3c(O)cccc3C5(C)O)cc2)c1OC (configuration not stated) | 15 | 15.2 | 15.5 | 22.1 | 23.3 | 24.4 | Non-toxic | Toxic
4 | CC(=O)NS(=O)(=O)c1ccc(NCNC(=O)C2=C(O)C(N(C)C)C3CC4C(=C(O)C3(O)C2=O)C(=O)c2c(O)cccc2C4(C)O)cc1 (configuration not stated) |  |  |  | 26.2 | 27.3 | 28.3 | Non-toxic | Toxic
5 | Cc1cc(NS(=O)(=O)c2ccc(NCNC(=O)C3=C(O)C(N(C)C)C4CC5C(=C(O)C4(O)C3=O)C(=O)c3c(O)cccc3C5(C)O)cc2)no1 (configuration not stated) | 21.1 | 21.2 | 22.1 | 21.3 | 22 | 23.2 | Non-toxic | Toxic
6 | CN(C)C1C(O)=C(C(=O)NCNc2ccc(S(=O)(=O)NC(=N)N)cc2)C(=O)C2(O)C(O)=C3C(=O)c4c(O)cccc4C(C)(O)C3CC12 (configuration not stated) | 13.2 | 13.9 | 14.2 | 24.1 | 24.3 | 25.2 | Non-toxic | Toxic
7 | CC(=O)NS(=O)(=O)c1ccc(N)cc1 [SULFACETAMIDE] |  |  |  | 20.5 | 21.2 | 22.15 |  | 
8 | Nc1ccc(S(=O)(=O)Nc2ncccn2)cc1 [SULFADIAZINE] | 10 | 15 | 20 | 28 | 30 | 39 |  | 
9 | N=C(N)NS(=O)(=O)c1ccc(N)cc1 [SULFAGUANIDINE] | 10 | 15 | 18 | 20 | 25 | 25 |  | 
10 | Cc1cc(NS(=O)(=O)c2ccc(N)cc2)no1 [SULFAMETHOXAZOLE] | 15 | 15 | 18 | 24 | 26 | 28 |  | 
11 | Nc1ccc(S(N)(=O)=O)cc1 [SULFANILAMIDE] | 10 | 12 | 16 | 22 | 25 | 28 |  | 

Source: ChEMBL document CHEMBL1143789, “Synthesis and biological study of medicinally important Mannich bases derived from 4-(dimethylamino)-1,4,4a,5,5a,6,11,12a-octahydro-3,6,10,12,12a pentahydroxy naphthacene carboxamide” (Bioorg Med Chem Lett, 2007)
